The melting point is the temperature of the solid-liquid transition.

Data set [1] relates to Leptosphaeria nodorum (LEPTNO). Nature of the data set: In vitro fungitoxicity of hydrazones with and without copper towards Leptosphaeria nodorum (Example 26). Format: cell-based. The following applies: 72 h at 25° C.; for inhibition of growth at 0.05 µg/mL: Parastagonospora nodorum, 72 h, copper-minus medium, read-out: LEPTNO % Inhn. Minus Copper Observed.
The subject of data set [2] is Phytophthora infestans. Type of data set: in vivo, Phytophthora infestans on tomato. The following applies: applied 24 h before inoculation, assessed 7 days after inoculation.
[3] abbreviates: compound 0.05 μg/mL, copper-plus medium (CuCl2.2H2O).
[4] abbreviates: hydrazone 50 ppm + 50 μM CuCl2.2H2O, tomato.
[5] abbreviates: test compound Concn. 0.05 μg/mL.
The mark [6] stands for this setting: copper-plus medium (CuCl2 10 μM), test compound Concn. 0.05 μg/mL.
The mark [7] stands for this setting: hydrazone 50 ppm with 50 μM CuCl2.2H2O, tomato late blight.

Read-outs that look alike come from different tables or passages of the source.

`CC/C(=N\NC(=O)c1cccc(Oc2ccccc2)c1)c1ccccc1O` [Example 44] registered a melting point of 148 to 163 °C. The inhibition of growth at 0.05 µg/mL in data set [1] (compound 0.05 μg/mL) was determined as 0.3%. The “LEPTNO % Inhn. Plus Copper Observed” value in data set [1] (setting [3]) was 93.0%. Also, the “TLB % Control” value in data set [2] (setting [4]) worked out at 0.7%.

`C/C(=N\NC(=O)c1cccc(Br)c1)c1cc(Cl)cc(Cl)c1O` [Example 138] showed a melting point of 247 to 253 °C. The inhibition of growth at 0.05 µg/mL in data set [1] (compound 0.05 μg/mL) came to 4%. The “LEPTNO % Inhn. Plus Copper Observed” value in data set [1] (setting [3]) was 98.1%. The “TLB % Control” value in data set [2] (setting [4]) was 91.0%.

In the case of `Cc1cccc(C(=O)N/N=C/c2cc(C(F)(F)F)ccc2O)c1` [Example 435], the melting point is 192 to 194 °C. Besides, the inhibition of growth at 0.05 µg/mL in data set [1] (setting [5]) amounted to 4.7%. Besides, the “LEPTNO % Inhn. Plus Copper Observed” value in data set [1] (setting [6]) is recorded as 97.2%. In addition, the “TLB % Control” value in data set [2] (setting [7]) is reported as 100.0%.

For the compound `COc1ccc(C(=O)N/N=C(\C)c2ccc(OC)c(OC)c2O)cc1` [Example 558], the melting point lay within 230 to 232 °C. Moreover, the inhibition of growth at 0.05 µg/mL in data set [1] (setting [5]) worked out at 3.8%. Also, the “LEPTNO % Inhn. Plus Copper Observed” value in data set [1] (setting [6]) turned out to be 95.7%. In addition, the “TLB % Control” value in data set [2] (setting [7]) is reported as 80.0%.

Compound `CCOc1ccc(C(=O)N/N=C/c2cc(Cl)cc(Cl)c2O)cc1` [Example 97] showed a melting point of 279 to 281 °C. For the same compound, in data set [1] (compound 0.05 μg/mL), the inhibition of growth at 0.05 µg/mL was found to be 18.2%. In addition, the “LEPTNO % Inhn. Plus Copper Observed” value in data set [1] (setting [3]) is recorded as 98.3%. In addition, the “TLB % Control” value in data set [2] (setting [4]) was 76.3%.

`O=C(N/N=C/c1cc(Br)ccc1O)c1cc(Cl)ccc1Cl` [Example 186] returned a melting point of 196 to 202 °C. In data set [1] (compound 0.05 μg/mL), the inhibition of growth at 0.05 µg/mL came out at 0%. Also, the “LEPTNO % Inhn. Plus Copper Observed” value in data set [1] (setting [3]) is listed as 97.6%. Besides, the “TLB % Control” value in data set [2] (setting [4]) was found to be 61.8%.

Take `O=C(N/N=C(/c1cc(Cl)cc(Cl)c1O)C1CC1)c1ccccc1` [Example 589]: the melting point is 218 to 219 °C. The inhibition of growth at 0.05 µg/mL in data set [1] (setting [5]) was determined as 8.7%. Further, the “LEPTNO % Inhn. Plus Copper Observed” value in data set [1] (setting [6]) was determined as 97.9%. The “TLB % Control” value in data set [2] (setting [7]) is 61.0%.

In turn, `O=C(N/N=C/c1cc(Cl)cc(Br)c1O)c1cccc([N+](=O)[O-])c1` [Example 416] showed a melting point of 167 to 226 °C. Besides, in data set [1] (setting [5]), the inhibition of growth at 0.05 µg/mL was found to be 4.3%. Besides, the “LEPTNO % Inhn. Plus Copper Observed” value in data set [1] (setting [6]) was found to be 97.5%. For the same compound, the “TLB % Control” value in data set [2] (setting [7]) is listed as 93.0%.

Take `Cc1ccc(C(=O)N/N=C/c2c(O)cccc2Cl)cc1` [Example 399]: the melting point was 250 to 252 °C. Besides, the inhibition of growth at 0.05 µg/mL in data set [1] (setting [5]) was 5.8%. In addition, the “LEPTNO % Inhn. Plus Copper Observed” value in data set [1] (setting [6]) is on record as 97.1%. The “TLB % Control” value in data set [2] (setting [7]) was determined as 88.0%.

As for `COc1ccc(/C(C)=N/NC(=O)c2cccc(Cl)c2)c(O)c1OC` [Example 556], the melting point lay in the range of 194 to 201 °C. In addition, in data set [1] (setting [5]), the inhibition of growth at 0.05 µg/mL is 7.7%. Moreover, in data set [1] (setting [6]), the “LEPTNO % Inhn. Plus Copper Observed” value is on record as 95.9%. Also, in data set [2] (setting [7]), the “TLB % Control” value was determined as 75.0%.

Take `COc1ccc(C(=O)N/N=C(\C)c2cc(Cl)ccc2O)cc1` [Example 511]: the melting point was 203 to 228 °C. Moreover, the inhibition of growth at 0.05 µg/mL in data set [1] (setting [5]) amounted to 0%. In addition, the “LEPTNO % Inhn. Plus Copper Observed” value in data set [1] (setting [6]) stood at 97.8%. Besides, the “TLB % Control” value in data set [2] (setting [7]) is reported as 73.0%.

`O=C(N/N=C/c1cc(Br)cc(Br)c1O)c1cc(Cl)cc(Cl)c1` [Example 117] yielded a melting point of 267 to 269 °C. For the same compound, the inhibition of growth at 0.05 µg/mL in data set [1] (compound 0.05 μg/mL) stood at 28.8%. Moreover, the “LEPTNO % Inhn. Plus Copper Observed” value in data set [1] (setting [3]) was 98.5%. In addition, the “TLB % Control” value in data set [2] (setting [4]) worked out at 89.5%.

Compound `O=C(N/N=C/c1cccc(Cl)c1O)c1cccc([N+](=O)[O-])c1` [Example 429] registered a melting point of 236 to 239 °C. In addition, in data set [1] (setting [5]), the inhibition of growth at 0.05 µg/mL is 10.4%. For the same compound, the “LEPTNO % Inhn. Plus Copper Observed” value in data set [1] (setting [6]) is reported as 97.4%. The “TLB % Control” value in data set [2] (setting [7]) was 94.0%.

Turning to `COc1cccc(C(=O)N/N=C/c2cc(Cl)cc(Br)c2O)c1` [Example 166], the melting point lay within 166 to 168 °C. Besides, the inhibition of growth at 0.05 µg/mL in data set [1] (compound 0.05 μg/mL) was 2.6%. For the same compound, in data set [1] (setting [3]), the “LEPTNO % Inhn. Plus Copper Observed” value amounted to 97.9%. Moreover, in data set [2] (setting [4]), the “TLB % Control” value stood at 71.9%.

As to `Cc1ccc(C(=O)N/N=C/c2cccc(C(F)(F)F)c2O)cc1` [Example 344], the melting point was in the range of 239 to 241 °C. For the same compound, in data set [1] (setting [5]), the inhibition of growth at 0.05 µg/mL came to 31.5%. Moreover, the “LEPTNO % Inhn. Plus Copper Observed” value in data set [1] (setting [6]) stood at 91.8%. The “TLB % Control” value in data set [2] (setting [7]) was found to be 100.0%.

In the case of `Cc1cc(C)cc(C(=O)N/N=C/c2cc(Br)cc(Br)c2O)c1` [Example 110], the melting point was 209 to 211 °C. Besides, the inhibition of growth at 0.05 µg/mL in data set [1] (compound 0.05 μg/mL) was determined as 19.9%. For the same compound, the “LEPTNO % Inhn. Plus Copper Observed” value in data set [1] (setting [3]) is on record as 98.2%. In addition, in data set [2] (setting [4]), the “TLB % Control” value came to 76.4%.

In the case of `O=C(N/N=C/c1ccc(Cl)c(Cl)c1O)c1cccc(F)c1` [Example 356], the melting point lay in the range of 215 to 218 °C. Moreover, the inhibition of growth at 0.05 µg/mL in data set [1] (setting [5]) came to 18.6%. Further, the “LEPTNO % Inhn. Plus Copper Observed” value in data set [1] (setting [6]) came out at 98.0%. Also, the “TLB % Control” value in data set [2] (setting [7]) was found to be 93.0%.

Compound `COc1ccc(/C(C)=N/NC(=O)c2ccc(Cl)cc2)c(O)c1` [Example 286] gave a melting point of 227 to 229 °C. Further, the inhibition of growth at 0.05 µg/mL in data set [1] (compound 0.05 μg/mL) worked out at 2.3%. The “LEPTNO % Inhn. Plus Copper Observed” value in data set [1] (setting [3]) worked out at 98.4%. Also, the “TLB % Control” value in data set [2] (setting [4]) stood at 75.0%.

For `C/C(=N\NC(=O)c1cccc(Cl)c1)c1cc(C(F)(F)F)ccc1O` [Example 532], the melting point fell in the range of 241 to 245 °C. Also, the inhibition of growth at 0.05 µg/mL in data set [1] (setting [5]) came out at 4.9%. Besides, the “LEPTNO % Inhn. Plus Copper Observed” value in data set [1] (setting [6]) is listed as 91.4%. In addition, in data set [2] (setting [7]), the “TLB % Control” value was 56.0%.

On to `O=C(N/N=C/c1cccc(Cl)c1O)c1cccc(F)c1` [Example 425], for which the melting point was 178 to 184 °C. Moreover, the inhibition of growth at 0.05 µg/mL in data set [1] (setting [5]) was 17.5%. The “LEPTNO % Inhn. Plus Copper Observed” value in data set [1] (setting [6]) was 97.6%. Also, in data set [2] (setting [7]), the “TLB % Control” value is 95.0%.

Compound `COc1ccc(O)c(/C(C)=N/NC(=O)c2cccc(C)c2)c1` [Example 263] showed a melting point of 131 to 141 °C. Besides, in data set [1] (compound 0.05 μg/mL), the inhibition of growth at 0.05 µg/mL was 4.1%. Besides, the “LEPTNO % Inhn. Plus Copper Observed” value in data set [1] (setting [3]) is given as 97.9%. Besides, in data set [2] (setting [4]), the “TLB % Control” value is reported as 14.0%.

Regarding `Cc1cc(C)cc(C(=O)N/N=C/c2cc(Br)ccc2O)c1` [Example 107], the melting point is 191 to 195 °C. In data set [1] (compound 0.05 μg/mL), the inhibition of growth at 0.05 µg/mL was 0%. The “LEPTNO % Inhn. Plus Copper Observed” value in data set [1] (setting [3]) was 97.2%. The “TLB % Control” value in data set [2] (setting [4]) is on record as 74.6%.

`C/C(=N\NC(=O)c1ccc(Br)cc1)c1cc(C(F)(F)F)ccc1O` [Example 535]: the melting point lay within 256 to 259 °C. For the same compound, the inhibition of growth at 0.05 µg/mL in data set [1] (setting [5]) was 10.1%. Besides, in data set [1] (setting [6]), the “LEPTNO % Inhn. Plus Copper Observed” value stood at 97.7%. The “TLB % Control” value in data set [2] (setting [7]) is recorded as 56.0%.

`O=C(N/N=C/c1cc(Cl)cc(Cl)c1O)c1cc2ccccc2cc1O` [Example 563] came in with a melting point of 287 to 292 °C. In addition, the inhibition of growth at 0.05 µg/mL in data set [1] (setting [5]) stood at 20.6%. In addition, the “LEPTNO % Inhn. Plus Copper Observed” value in data set [1] (setting [6]) worked out at 96.9%. Also, the “TLB % Control” value in data set [2] (setting [7]) is 70.0%.

Consider `Cc1cc(C)cc(C(=O)N/N=C/c2cc(Cl)cc(Br)c2O)c1` [Example 168], for which the melting point lay within 223 to 226 °C. Moreover, the inhibition of growth at 0.05 µg/mL in data set [1] (compound 0.05 μg/mL) was 13.3%. Also, the “LEPTNO % Inhn. Plus Copper Observed” value in data set [1] (setting [3]) stood at 97.7%. Further, in data set [2] (setting [4]), the “TLB % Control” value came out at 59.6%.

Values taken from patent US20120010075A1 (priority 2009, published 2012).
